Data from patent US5567693A, “Method for inhibiting angiogenesis, proliferation of endothelial or tumor cells and tumor growth” (American Cyanamid Company, priority 1994, dated 1996).
Counter-ions that a name gives are not always drawn.

How the values were obtained:
Format in all cases: cell-based
A2780S = test: Antiproliferative activity in human tumor cell lines: A2780S (ovarian); conditions: PROTOCOL 1 and PROTOCOL 2, 48 hours
Method: (§1) The assays are identified as follows:
(§2) PROTOCOL 1,2,and 3 are described in greater detail hereinbelow. In general, according to PROTOCOLS 1 and 2, the target ABAE and/or Human Tumor cells are exposed to the compounds of Formula I for 48 hours. PROTOCOL 3 exposes ABAE cells to the compounds for 4 days. A detailed description of the protocols is as follows:
(§3) The antiproliferative activity of the compounds of Formula I of the present invention is evaluated in a panel comprised of human tumor cell lines and an adult bovine aortic endothelial cell line (ABAE). The human tumor cell lines are from
(§4) Cultures are renewed after 20 passages with cells from a fresh stock of batch-frozen early passage cells. Cell lines are routinely checked for mycoplasma contamination (Genprobe). In a laminar flow hood, cells (1-5×10^4) are plated into 96-well microtiter plates in a volume of 0.1 ml/well with a bulk microtiter dispenser (Denley). […] Compounds are added using a Tomtec dispenser which simultaneously dispenses from one 96-well plate, containing the drug dilutions, to the plates containing the cells. After two days of continuous drug exposure, 50% cold trichloroacetic acid (TCA) is added to 10% final concentration to fix the cells, and after 60 minutes at 4° C., the TCA is aspirated and the plates are washed 5 times with deionized water using a microtiter plate washer. […] A 0.4% solution of the dye, sulforhodamine B, in […] is added to the plates, and the plates are washed 5 times with 1% glacial acetic acid using the automatic plate washed. The bound stain is solubilized with 0.1 ml of 10 mM Tris base. The optical densities are read from an automatic spectrophotometric plate reader (Dynatech) directly to a main frame computer (VAX 8600).
(§5) Positive controls, that include standard chemotherapeutic drugs (i.e., Adriamycin, Cisplatin, etc.), are included in every experiment.
(§6) Background optical density measurements (complete media-cells, and complete media+drug-cells) are automatically subtracted from the appropriate control and test wells. Mean values and standard errors are determined from duplicate wells. A measure is also made of the optical density at time when the drugs are added. The number of cells after treatment (P), as % of control, is calculated for every concentration of drug, as follows: [formula] wherein: T is optical density measurement for treated cells after 48 hours;
(§7) C is optical density measurement for untreated cells after 48 hours;
(§8) Co is optical density measurement for cells at the time of drug addition.
(§9) IC50 of growth inhibition is calculated from the sets of P values using the RS-1 data package (BBN Software).
(§10) The antiproliferative activity of the compounds of Formula I is evaluated in a panel comprised of human tumor cell lines and an adult bovine aortic cell line (ABAE) as listed in PROTOCOL 1. This assay is a modification of PROTOCOL 1. The modifications include:
(§11) 1) each concentration for each compound is tested in a single well;
(§12) 2) compounds are tested at 20, 4, 0.8, 0.16 microgram/ml and additionally in some experiments at 100 and 0.32 microgram/ml;
(§13) 3) samples are pipetted into a 96-well plate for each of the cell lines by a Beckman Biomek 1000 SL robot;
(§14) 4) after fixing with TCA each well is washed with 0.35 ml distilled water twice, not five times;
(§15) 5) after staining with sulforhodamine B each well is washed 3 times, not five times;
(§16) 6) the growth inhibition (I) as % of control, is calculated using the RS-1 data package (BBN Software), for every concentration of drug, as follows: [formula] wherein: T is optical density measurement for treated cells after 48 hours;
(§17) 7) IC50 of growth inhibition is determined graphically from dose response curves, as is known in the art.

A2780/DDP = test: Antiproliferative activity in human tumor cell lines: A2780/DDP (ovarian); conditions: PROTOCOL 1 and PROTOCOL 2, 48 hours
Method: as §1, §2, §3, §4, §5, §6, §7, §8, §9, §10, §11, §12, §13, §14, §15, §16, §17

[1] = test system: Adult Bovine Aortic Endothelial (ABAE) cell line; test: Antiproliferative activity in ABAE cell line, PROTOCOL 3 (4 day assay)
Method: The antiproliferative activity of the compounds of Formula I in an Adult Bovine Aortic Endothelial (ABAE) cell line and in Human Tumor cell lines is evaluated in three similar assays that measure growth inhibition. The assays are identified as follows:
as §2
Antiproliferative Activity in Adult Bovine Aortic Endothelial (ABAE) Cell Line
ABAE cells are grown in DMEMmedia (Mediatech, Washington, D.C.) supplemented with 10% calf serum (Hyclone). ABAE cells are plated in 24-well dishes at 8,000 cells/well, followed by the addition of increasing concentrations of 7-(hydrogen or di(C1 -C4)alkylamino)-8-halogen-9-(substituted)-6-demethyl-6-deoxytetracycline. After four days, the cells are detached and counted. […] The growth inhibition (I) as % of control is calculated as follows: [formula] wherein: Nc is the number of cells in untreated wells;
Nt is the number of cells in treated wells;
No is the number of plated cells.
IC50 of growth inhibition is determined from the sets of I values plotted by Kaleidograph software (Abelbeck Software).
In addition FIG. 1, presents the dose response curve for the compound of Example 10 for the above ABAE cell line obtained by using PROTOCOL 3.

Row | SMILES | IC50 (A2780S) [mg/L] | IC50 (A2780/DDP) [mg/L] | activity upon incubation with cells ([1]; 4 day assay (PROTOCOL 3)) | IC50 ([1]; Bos taurus, 96 h, PROTOCOL 3, 4 day assay, read-out: inhibits 50% of cell growth) [mg/L]
1 | CN(C)CC(=O)Nc1c(Cl)cc2c(c1O)C(=O)C1=C(O)[C@]3(O)C(=O)C(C(N)=O)=C(O)[C@@H](N(C)C)C3CC1C2 (stereo partly drawn) [Example 3, [4S-(45, 12aα)]-8-Chloro-4-(dimethylamino)-9[[(dimethylamino)acetyl]amino]-1,4,4a,5,5a,6,11,12a-octahydro-3,10,12,12a-tetrahydroxy-1,11-dioxo-2-naphthacenecarboxamide disulfate] | 1.8 | 2.5 |  | 
2 | CCCCNCC(=O)Nc1c(Cl)cc2c(c1O)C(=O)C1=C(O)[C@]3(O)C(=O)C(C(N)=O)=C(O)[C@@H](N(C)C)C3CC1C2 (stereo partly drawn) [Example 4, [4S-(4α, 12aα)]-9-[[(Butylamino)acetyl]amino]-8-chloro-4-(dimethylamino) -1,4,4a,5,5a,6,11,12a-octahydro-3,10,12,12a-tetrahydroxy-1,11-dioxo-2-naphthacenecarboxamide dihydrochloride] | 2.5 | 2.8 |  | 
3 | CCCNCC(=O)Nc1c(Cl)cc2c(c1O)C(=O)C1=C(O)[C@]3(O)C(=O)C(C(N)=O)=C(O)[C@@H](N(C)C)C3CC1C2 (stereo partly drawn) [Example 5, [4S-(4α, 12aα)]-8-Chloro-4-(dimethylamino)-1,4,4a,5,5a, 6,11,12a-octahydro-3,10,12,12a-tetrahydroxy-1,11-dioxo-9-[[(propylamino)acetyl]amino]-2-naphthacenecarboxamide dihydrochloride] | 3 | 3 |  | 
4 | CCCCCNCC(=O)Nc1c(Cl)cc2c(c1O)C(=O)C1=C(O)[C@]3(O)C(=O)C(C(N)=O)=C(O)[C@@H](N(C)C)C3CC1C2 (stereo partly drawn) [Example 6, [4S-(4α, 12aα)]-8-Chloro-4-(dimethylamino)-1,4,4a,5,5a,6,11,12a-octahydro-3,10,12,12a-tetrahydroxy-1,11-dioxo-9-[[(pentylamino)acetyl]amino]-2-naphthacenecarboxamide dihydrochloride] | 0.5 | 0.7 |  | 
5 | CNCC(=O)Nc1c(Cl)cc2c(c1O)C(=O)C1=C(O)[C@]3(O)C(=O)C(C(N)=O)=C(O)[C@@H](N(C)C)C3CC1C2 (stereo partly drawn) [Example 7, [4S-(4α, 12aα)]-8-Chloro-4-(dimethylamino)-1,4,4a,5,5a,6,11,12a-octahydro-3,10,12,12a-tetrahydroxy-1,11-dioxo-9-[[(methylamino)acetyl]amino]-2-naphthacenecarboxamide dihydrochloride] | 4.6 | 3.8 |  | 
6 | CN(C)[C@@H]1C(O)=C(C(N)=O)C(=O)[C@@]2(O)C(O)=C3C(=O)c4c(cc(Cl)c(NC(=O)CNCC5CC5)c4O)CC3CC12 (stereo partly drawn) [Example 8, [4S-(4α,12aα)]-8-Chloro-9-[[(cyclopropylmethylamino)-acetyl]amino]4-(dimethylamino)-1,4,4a,5,5a,6,11,12a-octahydro-3,10,12,12a-tetrahydroxy-1,11-dioxo-2-naphthacenecarboxamide dihydrochloride] | 2.2 | 2.5 |  | 
7 | CN(C)[C@@H]1C(O)=C(C(N)=O)C(=O)[C@@]2(O)C(O)=C3C(=O)c4c(cc(Cl)c(NC(=O)CN5CCCC5)c4O)CC3CC12 (stereo partly drawn) [Example 9, [7S-(7α,10aα)]-N-[9-(Aminocarbonyl)-3-chloro-7-(dimethylamino)-5,5a,6,6a,7,10,10a,12-octahydro-1,8,10a,11-tetrahydroxy-10,12-dioxo-2-naphthacenyl]-1-pyrrolidineacetamide dihydrochloride] | 1.3 | 1 |  | 
8 | CN(C)[C@@H]1C(O)=C(C(N)=O)C(=O)[C@@]2(O)C(O)=C3C(=O)c4c(cc(Cl)c(NC(=O)CN5CCCCC5)c4O)CC3CC12 (stereo partly drawn) [Example 10, 7S-(7α,10aα)]-N-[9-(Aminocarbonyl)-3-chloro-7-(dimethylamino)-5,5a,6,6a,7,10,10a,12-octahydro-1,8,10a,11-tetrahydroxy-10,12-dioxo-2-naphthacenyl]-1-piperidineacetamide dihydrochloride] | 0.5 | 0.6 | retains its activity | ~0.4
9 | CN(C)c1c(Cl)cc(O)c2c1CC1CC3[C@H](N(C)C)C(O)=C(C(N)=O)C(=O)[C@@]3(O)C(O)=C1C2=O (stereo partly drawn) [Example 11, [4S-(4α,12aα)]-8-Chloro-4,7-bis(dimethylamino)-1,4,4a,5,5a,6,11,12a-octahydro-3,10,12,12a-tetrahydroxy-1,11-dioxo-2-naphthacenecarboxamide sulfate] | 1.6 | 3.85 |  | 
